Measurements taken from PubChem BioAssay (NCI).
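1) Cells in 96-well plates. 2) Compound, 48 h, 5 concentrations. 3) Linear interpolation between surrounding doses. 4) Unreached endpoint = highest concentration. The concentration for 50% growth inhibition is given as GI50. Definition used: TGI = concentration required for complete inhibition of growth.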

Experiments:
Assay in all cases: NCI anticancer screen, dose series, 48 h
[1] = test system: MOLT-4 leukemia
[2] = test system: K-562 leukemia
[3] = test system: ACHN renal
[4] = test system: SK-MEL-28 melanoma
[5] = test system: TK-10 renal
[6] = test system: HCT-15 colon
[7] = test system: RXF 393 renal
[8] = test system: A549 NSCLC
[9] = test system: MCF7 breast
[10] = test system: IGROV1 ovarian
[11] = test system: NCI-H460 lung
[12] = test system: OVCAR-8 ovarian
[13] = test system: SF-295 CNS
[14] = test system: SR leukemia
[15] = test system: UACC-62 melanoma
[16] = test system: HL-60(TB) leukemia
[17] = test system: SK-MEL-5 melanoma
[18] = test system: SW-620 colon
[19] = test system: EKVX NSCLC
[20] = test system: SF-268 CNS
[21] = test system: CAKI-1 renal
[22] = test system: HCC-2998 colon
[23] = test system: BT-549 breast
[24] = test system: 786-0 renal
[25] = test system: COLO 205 colon
[26] = test system: LOX IMVI melanoma
[27] = test system: KM12 colon
[28] = test system: NCI-H226 lung
[29] = test system: DU-145 prostate
[30] = test system: UO-31 renal
[31] = test system: SNB-19 CNS
[32] = test system: OVCAR-3 ovarian
[33] = test system: NCI-H522 lung
[34] = test system: HOP-62 NSCLC
[35] = test system: U251 CNS
[36] = test system: SNB-75 CNS
[37] = test system: SF-539 CNS
[38] = test system: HS 578T breast
[39] = test system: OVCAR-5 ovarian
[40] = test system: T-47D breast
[41] = test system: A498 renal
[42] = test system: M14 melanoma
[43] = test system: MDA-MB-231 breast
[44] = test system: HCT-116 colon
[45] = test system: UACC-257 melanoma
[46] = test system: NCI/ADR-RES ovarian
[47] = test system: MALME-3M melanoma
[48] = test system: SK-OV-3 ovarian
[49] = test system: SN12C renal
[50] = test system: NCI-H23 lung
[51] = test system: OVCAR-4 ovarian
[52] = test system: HT29 colon
[53] = test system: PC-3 prostate
[54] = test system: RPMI-8226 leukemia
[55] = test system: CCRF-CEM leukemia
[56] = test system: HOP-92 NSCLC
[57] = test system: MDA-MB-435
[58] = test system: SK-MEL-2 melanoma

COc1cc(C(=O)N[C@@H]2CCCN(C)C2)ccc1Nc1ncc2c(n1)N(C1CCCC1)CC(C)(C)C(=O)N2C
GI50 [1]: 41.7 nM
TGI [1]: 3890 nM
GI50 [2]: 37.8 nM
TGI [2]: 3190 nM
GI50 [3]: 1550 nM
TGI [3]: 19.4 µM
GI50 [4]: 153 nM
TGI [4]: 2040 nM
GI50 [5]: 4300 nM
TGI [5]: 20.9 µM
GI50 [6]: 380 nM
TGI [6]: 14 µM
GI50 [7]: 42.7 nM
TGI [7]: 8.99 µM
GI50 [8]: 54.9 nM
TGI [8]: 5.18 µM
GI50 [9]: 27.8 nM
TGI [9]: 11.6 µM
GI50 [10]: 396 nM
TGI [10]: 21.7 µM
GI50 [11]: 40 nM
TGI [11]: 14.8 µM
GI50 [12]: 54.1 nM
TGI [12]: 16.8 µM
GI50 [13]: 109 nM
TGI [13]: 3560 nM
GI50 [14]: 36.9 nM
TGI [14]: 2490 nM
GI50 [15]: 153 nM
TGI [15]: 15.5 µM
GI50 [16]: 26.6 nM
TGI [16]: 78.8 nM
GI50 [17]: 123 nM
TGI [17]: 1560 nM
GI50 [18]: 34.7 nM
TGI [18]: 16.7 µM
GI50 [19]: 1110 nM
TGI [19]: 24 µM
GI50 [20]: 588 nM
TGI [20]: 20.1 µM
GI50 [21]: 984 nM
TGI [21]: 19.7 µM
GI50 [22]: 49.8 nM
TGI [22]: 14.7 µM
GI50 [23]: 730 nM
TGI [23]: 18 µM
GI50 [24]: 308 nM
TGI [24]: 6.43 µM
GI50 [25]: 41.2 nM
TGI [25]: 1180 nM
GI50 [26]: 54.1 nM
TGI [26]: 1870 nM
GI50 [27]: 34.3 nM
TGI [27]: 18.3 µM
GI50 [28]: 633 nM
TGI [28]: 21.9 µM
GI50 [29]: 48.8 nM
TGI [29]: 19.6 µM
GI50 [30]: 1960 nM
TGI [30]: 16.1 µM
GI50 [31]: 230 nM
TGI [31]: 20.4 µM
GI50 [32]: 44.2 nM
TGI [32]: 16.1 µM
GI50 [33]: 20.9 nM
TGI [33]: 57.5 nM
GI50 [34]: 64.1 nM
TGI [34]: 10.2 µM
GI50 [35]: 46.5 nM
TGI [35]: 5.48 µM
GI50 [36]: 134 nM
TGI [36]: 4740 nM
GI50 [37]: 203 nM
TGI [37]: 1690 nM
GI50 [38]: 188 nM
TGI [38]: 19.9 µM
GI50 [39]: 60.8 nM
TGI [39]: 17.5 µM
GI50 [40]: 1120 nM
TGI [40]: 17.8 µM
GI50 [41]: 71.5 nM
TGI [41]: 774 nM
GI50 [42]: 49.4 nM
TGI [42]: 769 nM
GI50 [43]: 1560 nM
TGI [43]: 15.6 µM
GI50 [44]: 50.9 nM
TGI [44]: 5210 nM
GI50 [45]: 285 nM
TGI [45]: 2630 nM
GI50 [46]: 344 nM
TGI [46]: 16.2 µM
GI50 [47]: 2030 nM
TGI [47]: 10.6 µM
GI50 [48]: 48.4 nM
TGI [48]: 2420 nM
GI50 [49]: 347 nM
TGI [49]: 16.6 µM
GI50 [50]: 41 nM
TGI [50]: 3010 nM
GI50 [51]: 10.8 µM
TGI [51]: 23.4 µM
GI50 [52]: 36.3 nM
TGI [52]: 6.46 µM
GI50 [53]: 64.6 nM
TGI [53]: 19.9 µM
GI50 [54]: 1250 nM
TGI [54]: 19.4 µM
GI50 [55]: 34.9 nM
TGI [55]: 16.5 µM

OC1(c2ccccc2)c2ccccc2N(c2ccccc2)c2ccc(Cl)cc21 (configuration not stated)
GI50 [1]: 294 nM
TGI [1]: 1250 nM
GI50 [2]: 180 nM
TGI [2]: 1140 nM
GI50 [3]: 367 nM
TGI [3]: 1.37 µM
GI50 [4]: 193 nM
TGI [4]: 434 nM
GI50 [5]: 300 nM
TGI [5]: 1.01 µM
GI50 [6]: 424 nM
TGI [6]: 1.86 µM
GI50 [7]: 185 nM
TGI [7]: 0.472 µM
GI50 [8]: 332 nM
TGI [8]: 1.3 µM
GI50 [9]: 299 nM
TGI [9]: 0.894 µM
GI50 [10]: 341 nM
TGI [10]: 1.15 µM
GI50 [11]: 246 nM
TGI [11]: 0.568 µM
GI50 [12]: 287 nM
TGI [12]: 1.25 µM
GI50 [13]: 575 nM
TGI [13]: 2270 nM
GI50 [15]: 195 nM
TGI [15]: 0.452 µM
GI50 [16]: 251 nM
TGI [16]: 739 nM
GI50 [17]: 186 nM
TGI [17]: 432 nM
GI50 [18]: 197 nM
TGI [18]: 0.491 µM
GI50 [19]: 286 nM
TGI [19]: 1.25 µM
GI50 [20]: 311 nM
TGI [20]: 1.14 µM
GI50 [56]: 214 nM
TGI [56]: 703 nM
GI50 [21]: 257 nM
TGI [21]: 0.779 µM
GI50 [22]: 258 nM
TGI [22]: 0.795 µM
GI50 [23]: 367 nM
TGI [23]: 1.29 µM
GI50 [24]: 253 nM
TGI [24]: 0.68 µM
GI50 [25]: 147 nM
TGI [25]: 338 nM
GI50 [26]: 179 nM
TGI [26]: 348 nM
GI50 [27]: 296 nM
TGI [27]: 0.845 µM
GI50 [57]: 213 nM
TGI [57]: 631 nM
GI50 [29]: 412 nM
TGI [29]: 1.39 µM
GI50 [30]: 380 nM
TGI [30]: 1.51 µM
GI50 [31]: 378 nM
TGI [31]: 1.45 µM
GI50 [32]: 147 nM
TGI [32]: 0.304 µM
GI50 [33]: 161 nM
TGI [33]: 433 nM
GI50 [34]: 328 nM
TGI [34]: 1.23 µM
GI50 [35]: 201 nM
TGI [35]: 0.536 µM
GI50 [36]: 293 nM
TGI [36]: 1110 nM
GI50 [37]: 236 nM
TGI [37]: 683 nM
GI50 [38]: 332 nM
TGI [38]: 1.81 µM
GI50 [39]: 457 nM
TGI [39]: 1.28 µM
GI50 [40]: 103 nM
TGI [40]: 0.282 µM
GI50 [41]: 198 nM
TGI [41]: 765 nM
GI50 [42]: 249 nM
TGI [42]: 694 nM
GI50 [43]: 231 nM
TGI [43]: 0.626 µM
GI50 [44]: 234 nM
TGI [44]: 602 nM
GI50 [45]: 201 nM
TGI [45]: 720 nM
GI50 [46]: 1550 nM
TGI [46]: 6.23 µM
GI50 [47]: 237 nM
TGI [47]: 0.643 µM
GI50 [48]: 608 nM
TGI [48]: 1390 nM
GI50 [49]: 224 nM
TGI [49]: 0.712 µM
GI50 [50]: 320 nM
TGI [50]: 1380 nM
GI50 [51]: 0.313 µM
TGI [51]: 1.39 µM
GI50 [52]: 283 nM
TGI [52]: 0.918 µM
GI50 [58]: 240 nM
TGI [58]: 485 nM
GI50 [53]: 303 nM
TGI [53]: 1.23 µM
GI50 [54]: 216 nM
TGI [54]: 0.862 µM
GI50 [55]: 382 nM
TGI [55]: 13.7 µM
